Experimental findings from patent US20250206729A1, “DUAL RAF AND TUBULIN INHIBITORS AND METHODS OF USE THEREOF” (Deciphera Pharmaceuticals, LLC, priority 2023, published 2025) are described below.

SMILES strings stand for the structures.

Test [1] has as its target T1, B-Raf kinase (SEQ ID NO: 1) (Homo sapiens, UniProt P15056).
T1 construct: GST (N); purchased Sigma
Nature of the test: Biochemical assay for B-Raf (coupled pyruvate kinase/lactate dehydrogenase). The note with it: 1 mM ATP; read-out: BRAF (inhibition of biochemical activity, IC50).

The subject of the next test is MiaPaca-2 cells. Kind of test: MiaPaca-2 cell proliferation assay. The format is cell-based. The settings on record: Homo sapiens, MIA PaCa-2; 67-72 h incubation, resazurin; read-out: MiaPaca-2 (inhibition of cell proliferation, IC50). Background: Alamar Blue is a resazurin reagent that responds to reducing activity.
For test [2], the target named is T2, C-Raf kinase (SEQ ID NO: 2) (Homo sapiens, UniProt P04049, Y340D/Y341D).
T2 construct: C-Raf residues 306-end; Y340D, Y341D with N-; GST (N); purchased Sigma
T2 sequence (P04049 307-648 Y340D/Y341D): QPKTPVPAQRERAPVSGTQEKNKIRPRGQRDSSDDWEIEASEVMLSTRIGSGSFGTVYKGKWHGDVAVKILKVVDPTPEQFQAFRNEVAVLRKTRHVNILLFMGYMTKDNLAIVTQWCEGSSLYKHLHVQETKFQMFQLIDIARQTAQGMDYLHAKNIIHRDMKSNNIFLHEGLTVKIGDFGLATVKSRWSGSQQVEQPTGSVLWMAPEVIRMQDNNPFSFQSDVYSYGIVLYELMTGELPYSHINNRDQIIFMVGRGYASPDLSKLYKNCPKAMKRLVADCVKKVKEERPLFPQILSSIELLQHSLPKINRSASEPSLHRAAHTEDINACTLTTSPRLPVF
Nature of the test: Biochemical assay for C-Raf (coupled pyruvate kinase/lactate dehydrogenase). The note with it: 1 mM ATP; read-out: CRAF (inhibition of biochemical activity, IC50).

The next test deals with HCT-116 cells. Nature of the test: HCT-116 cell proliferation assay. The format is cell-based. The settings on record: Homo sapiens, HCT-116; 67 to 72 h incubation, resazurin; read-out: HCT-116 (inhibition of cell proliferation, IC50).
Another test concerns HPAF-II cells. Kind of test: HPAF-II cell proliferation assay. In kind it is cell-based. The settings on record: Homo sapiens, HPAF-II; 115 to 120 h incubation, resazurin; read-out: HPAF-II (inhibition of cell proliferation, IC50).
The test system of the next test is Pa16c cells. Kind of test: Pa16c cell proliferation assay. The format is cell-based. The note with it: 67 to 72 h incubation, resazurin; read-out: Pa16c (inhibition of cell proliferation, IC50).

T1 sequence (P15056 416-766): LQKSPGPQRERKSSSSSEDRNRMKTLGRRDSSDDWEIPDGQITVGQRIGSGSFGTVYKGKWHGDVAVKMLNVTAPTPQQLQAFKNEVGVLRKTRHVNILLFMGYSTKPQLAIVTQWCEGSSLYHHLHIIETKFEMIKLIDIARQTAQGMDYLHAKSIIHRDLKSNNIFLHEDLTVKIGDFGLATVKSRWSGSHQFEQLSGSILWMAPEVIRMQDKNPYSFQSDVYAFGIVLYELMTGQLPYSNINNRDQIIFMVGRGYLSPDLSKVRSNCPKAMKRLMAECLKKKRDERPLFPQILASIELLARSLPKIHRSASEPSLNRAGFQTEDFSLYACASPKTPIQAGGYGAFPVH

For the molecule `C=C(C)c1cncc(C(=O)Nc2ccc(C)c(-c3cc(N[C@H](C)CO)nc(N4CCOCC4)c3)c2)n1` [Example 53], the IC50 in test [1] was < 0.1 µM; with MiaPaca-2 cells it was 1 to 10 µM; in test [2], < 0.1 µM; in the test on HCT-116 cells it was 1 to 10 µM; in the test on HPAF-II cells it was 1 to 10 µM; with Pa16c cells, 1 to 10 µM.

With `Cc1ccc(NC(=O)c2cnc(C(C)C)nc2)cc1-c1cc(N[C@H](C)CO)nc(N2CCOCC2)c1` [Example 54], the IC50 in test [1] is 0.1 to 0.5 µM; in the test with MiaPaca-2 cells, 1 to 10 µM; in test [2] it was < 0.1 µM; with HCT-116 cells, 1 to 10 µM; with HPAF-II cells, 1 to 10 µM; in the test with Pa16c cells, 1 to 10 µM.

Take `Cc1ccc(NC(=O)c2cc(C3CC3)cnn2)cc1-c1cncc(N2CCOCC2)n1` [Example 55]: the IC50 in test [1] was 1 to 10 µM; with MiaPaca-2 cells it was 1 to 10 µM; in test [2], 0.5 to 1 µM; in the test with HCT-116 cells, 1 to 10 µM; with HPAF-II cells it was 1 to 10 µM; with Pa16c cells, 1 to 10 µM.

As for `Cc1ccc(NC(=O)c2cc(C(C)C)cnn2)cc1-c1cncc(N2CCOCC2)n1` [Example 56], the IC50 in test [1] fell in the range of 0.1 to 0.5 µM; in the test with MiaPaca-2 cells, 1 to 10 µM; in test [2], 0.1 to 0.5 µM; in the test on HCT-116 cells, 1 to 10 µM; in the test with HPAF-II cells, 1 to 10 µM; in the test with Pa16c cells, 1 to 10 µM.

With `Cc1ccc(NC(=O)c2cncc(C(C)C)n2)cc1-c1cc(N[C@H](C)CO)nc(N2CCOCC2)c1` [Example 57, (R)—N-(3-(2-((1-hydroxypropan-2-yl)amino)-6-morpholinopyridin-4-yl)-4-methylphenyl)-6-isopropylpyrazine-2-carboxamide], the IC50 lay within 0.1 to 0.5 µM in test [1]; 1 to 10 µM in the test with MiaPaca-2 cells; 0.1 to 0.5 µM in test [2]; 1 to 10 µM in the test on HCT-116 cells; 1 to 10 µM in the test on HPAF-II cells; 1 to 10 µM with Pa16c cells.

Consider `Cc1ccc(NC(=O)c2cc(C(C)C)cnn2)cc1-c1ccnc(N2CCOCC2)c1` [Example 58], for which the IC50 is 0.1 to 0.5 µM in test [1]; 0.5 to 1 µM in the test with MiaPaca-2 cells; < 0.1 µM in test [2]; 0.1 to 0.5 µM in the test on HCT-116 cells; 0.1 to 0.5 µM with HPAF-II cells; 0.1 to 0.5 µM with Pa16c cells.

As to `Cc1ccc(NC(=O)c2cc(C(F)(F)F)cnn2)cc1-c1cncc(N2CCOCC2)n1` [Example 59], the IC50 is 1 to 10 µM in test [1]; 0.5 to 1 µM with MiaPaca-2 cells; 1 to 10 µM in test [2]; 0.5 to 1 µM in the test on HCT-116 cells; 0.5 to 1 µM in the test on HPAF-II cells; 0.1 to 0.5 µM with Pa16c cells.

As to `CNc1cc(-c2cc(NC(=O)c3cc(C4CC4)cnn3)ccc2C)cc(N2CCOCC2)n1` [Example 60], the IC50 in test [1] is 0.1 to 0.5 µM; in the test with MiaPaca-2 cells, < 0.1 µM; in test [2] it was < 0.1 µM; in the test on HCT-116 cells, < 0.1 µM; in the test on HPAF-II cells, < 0.1 µM; in the test with Pa16c cells, < 0.1 µM.

Consider `CNc1cc(-c2cc(NC(=O)c3cc(C(F)(F)F)cnn3)ccc2C)cc(N2CCOCC2)n1` [Example 61], for which the IC50 (in test [1]; with MiaPaca-2 cells; in test [2]; in the test with HCT-116 cells; in the test on HPAF-II cells; with Pa16c cells) was < 0.1 µM throughout.

For `Cc1ccc(NC(=O)c2cncc(C3CC3)n2)cc1-c1cc(N[C@H](C)CO)nc(N2CCOCC2)c1` [Example 62], the IC50 in test [1] is 0.1 to 0.5 µM; with MiaPaca-2 cells it was 1 to 10 µM; in test [2], < 0.1 µM; with HCT-116 cells it was 1 to 10 µM; in the test on HPAF-II cells, 1 to 10 µM; with Pa16c cells, 1 to 10 µM.

Take `Cc1ccc(NC(=O)c2cc(C(C)(F)F)cnn2)cc1-c1cc(OCCO)nc(N2CCOCC2)c1` [Example 63]: the IC50 (in test [1]; in the test on MiaPaca-2 cells; in test [2]; in the test with HCT-116 cells; in the test with HPAF-II cells; in the test on Pa16c cells) was < 0.1 µM in each case.

In the case of `Cc1ccc(NC(=O)c2cc(C(C)(F)F)cnn2)cc1-c1cc(NCCO)nc(N2CCOCC2)c1` [Example 64], the IC50 (in test [1]; in the test on MiaPaca-2 cells; in test [2]; in the test on HCT-116 cells; in the test with HPAF-II cells; in the test on Pa16c cells) was < 0.1 µM in each case.

Consider `Cc1ccc(NC(=O)c2cc(Cl)cnn2)cc1-c1cncc(N2CCOCC2)n1` [Example 65], for which the IC50 (in test [1]; in the test on MiaPaca-2 cells; in test [2]; with HCT-116 cells; in the test on HPAF-II cells; with Pa16c cells) was 1 to 10 µM throughout.

On to `Cc1ccc(NC(=O)c2cc(C(C)(F)F)cnn2)cc1-c1cc(N[C@H](C)CO)nc(N2CCOCC2)c1` [Example 66], for which the IC50 (in test [1]; in the test with MiaPaca-2 cells; in test [2]; in the test with HCT-116 cells; with HPAF-II cells; in the test on Pa16c cells) was < 0.1 µM each time.

With `Cc1ccc(NC(=O)c2cnc(N)nc2)cc1-c1cc(N[C@H](C)CO)nc(N2CCOCC2)c1` [Example 68], the IC50 in test [1] was 1 to 10 µM; in the test with MiaPaca-2 cells, 1 to 10 µM; in test [2] it was 0.5 to 1 µM; in the test with HCT-116 cells, 1 to 10 µM; in the test with HPAF-II cells, 1 to 10 µM; with Pa16c cells, 1 to 10 µM.

Turning to `Cc1ccc(NC(=O)c2cnc(Br)nc2)cc1-c1cc(N[C@H](C)CO)nc(N2CCOCC2)c1` [Example 69], the IC50 (in test [1]; in the test with MiaPaca-2 cells; in test [2]; in the test with HCT-116 cells; in the test on HPAF-II cells; with Pa16c cells) was 1 to 10 µM each time.

Turning to `Cc1ccc(NC(=O)c2cc(C3CC3)cnn2)cc1-c1cc(N[C@H](C)CO)nc(N2CCOCC2)c1` [Example 70], the IC50 (in test [1]; in the test on MiaPaca-2 cells; in test [2]; in the test on HCT-116 cells; in the test on HPAF-II cells; in the test on Pa16c cells) was < 0.1 µM throughout.

Consider `Cc1ccc(NC(=O)c2cc(Cl)cnn2)cc1-c1ccnc(N2CCOCC2)n1` [Example 71], for which the IC50 is 1 to 10 µM in test [1]; 0.1 to 0.5 µM with MiaPaca-2 cells; 1 to 10 µM in test [2]; 1 to 10 µM in the test with HCT-116 cells; 1 to 10 µM in the test on HPAF-II cells; 1 to 10 µM with Pa16c cells.

Consider `Cc1ccc(NC(=O)c2cc(C(C)C)cnn2)cc1-c1cc(N2CCOCC2)ncn1` [Example 72], for which the IC50 in test [1] lay within 0.1 to 0.5 µM; with MiaPaca-2 cells, 1 to 10 µM; in test [2], 0.1 to 0.5 µM; in the test with HCT-116 cells, 1 to 10 µM; in the test on HPAF-II cells, 1 to 10 µM; in the test with Pa16c cells, 1 to 10 µM.

As to `Cc1ccc(NC(=O)c2cc(C(C)C)cnn2)cc1-c1ccnc(N2CCOCC2)n1` [Example 73], the IC50 in test [1] fell in the range of 1 to 10 µM; with MiaPaca-2 cells it was 1 to 10 µM; in test [2], 0.1 to 0.5 µM; in the test with HCT-116 cells, 0.5 to 1 µM; with HPAF-II cells, 1 to 10 µM; in the test with Pa16c cells, 1 to 10 µM.

As for `Cc1ccc(NC(=O)c2cc(Cl)cnn2)cc1-c1cc(N2CCOCC2)ncn1` [Example 74], the IC50 (in test [1]; in the test on MiaPaca-2 cells; in test [2]; in the test with HCT-116 cells; in the test on HPAF-II cells; in the test with Pa16c cells) was 1 to 10 µM throughout.

Turning to `Cc1ccc(NC(=O)c2cc(Cl)cnn2)cc1-c1cccc(N2CCOCC2)c1` [Example 75], the IC50 (in test [1]; in the test on MiaPaca-2 cells; in test [2]; with HCT-116 cells; in the test on HPAF-II cells; in the test on Pa16c cells) was 1 to 10 µM in each case.

As for `Cc1ccc(NC(=O)c2cc(C(C)C)cnn2)cc1-c1cccc(N2CCOCC2)c1` [Example 76], the IC50 in test [1] is 0.1 to 0.5 µM; in the test with MiaPaca-2 cells it was 1 to 10 µM; in test [2], < 0.1 µM; with HCT-116 cells, 1 to 10 µM; with HPAF-II cells, 1 to 10 µM; with Pa16c cells, 1 to 10 µM.

Turning to `Cc1ccc(NC(=O)c2cc(Cl)cnn2)cc1-c1cncc(N2CCOCC2)c1` [Example 77], the IC50 (in test [1]; with MiaPaca-2 cells; in test [2]; with HCT-116 cells; in the test on HPAF-II cells; in the test with Pa16c cells) was 1 to 10 µM in each case.

On to `Cc1ccc(NC(=O)c2cc(Br)cnn2)cc1-c1cc(OCCO)nc(N2CCOCC2)c1` [Example 78], for which the IC50 in test [1] is 0.1 to 0.5 µM; in the test with MiaPaca-2 cells, 0.5 to 1 µM; in test [2], < 0.1 µM; in the test on HCT-116 cells, 0.5 to 1 µM; with HPAF-II cells it was 1 to 10 µM; with Pa16c cells, 1 to 10 µM.

As for `Cc1ccc(NC(=O)c2cc(C(C)C)cnn2)cc1-c1cncc(N2CCOCC2)c1` [Example 79], the IC50 was 0.1 to 0.5 µM in test [1]; 1 to 10 µM in the test on MiaPaca-2 cells; < 0.1 µM in test [2]; 1 to 10 µM with HCT-116 cells; 1 to 10 µM with HPAF-II cells; 1 to 10 µM in the test on Pa16c cells.

`Cc1ccc(NC(=O)c2cc(C(N)=O)cnn2)cc1-c1cc(N[C@H](C)CO)nc(N2CCOCC2)c1` [Example 80]: the IC50 in test [1] lay in the range of 1 to 10 µM; in the test with MiaPaca-2 cells it was 0.1 to 0.5 µM; in test [2] it was 0.5 to 1 µM; in the test with HCT-116 cells, 0.5 to 1 µM; with HPAF-II cells, 1 to 10 µM; in the test with Pa16c cells it was 1 to 10 µM.
